The text below walks through data of patent US20140142180A1, “METHODS OF TREATING TUMORS HAVING ELEVATED MCT1 EXPRESSION” (Whitehead Institute for Biomedical Research, priority 2012, published 2014).

Assay [1] relates to glyceraldehyde phosphate dehydrogenase (GAPDH). As to the kind of experiment: LC-MS metabolite profiling, wild type relative to MCT1-null KBM7 cells. The assay is classed as cell-based, human. How it is done:
(§1) The bioenergetic profiles of KBM7 and MDA-MB-231 cells in response to 3-BrPA were determined using a Seahorse Bioscience XF24 Extracellular Flux Analyzer (Seahorse Bioscience). For the indicated experiments, 250,000 KBM7 or 40,000 MDA-MB-231 cells seeded in Seahorse tissue culture plates using unbuffered RPMI (10 mM Glucose). KBM7 cells were attached to the plates using CellTak (Clontech) one hour prior to the start of the experiment. For AUC (area under the curve) OCR and ECAR measurements, three consecutive readings were performed for each cell line. For experiments where 3-BrPA is used, after 3 consecutive readings, 50 μM 3-BrPA was injected through port A and ECAR and OCAR levels were measured. Lactate production was measured as described previously^50. For ATP assays, 20,000 cells were seeded and treated for 30 min with indicated amounts of 3-BrPA and ATP levels were determined using a luciferase-based assay (Promega). For metabolite measurements, 10 million wild type and MCT1 null KBM7 cells were cultured for 1 hour in presence of 50 μM 3-BrPA before metabolite extraction. Then, cells were rapidly washed three times with cold PBS, and then metabolites were extracted by addition of 80% ice-cold methanol followed after incubation on dry ice for 15 min. Endogenous metabolite profiles were obtained using LC-MS as described^51. Metabolite levels (n=3) were normalized to cell number.

The subject of assay [2] is SK-BR-3 cells. As to the kind of experiment: Cell survival assay, SK-BR-3. The assay is classed as cell-based, human. How it is done:
(§2) Cell lines (5,000-20,000) were seeded in 96-well plates and treated with indicated amounts of 3-BrPA. After 3 days of treatment, CellTiter-Glo (Promega) and/or CyQuant (Invitrogen) were used to measure survival percentage for each concentration compared to untreated cells. FACS analysis with Annexin V and 7AAD staining was performed according to manufacturer's manual (BD Pharmingen).
(§3) 15 cell lines (BT-474, BT-549, CAK1-1, CAL-51, HCC-70, HS578T, JURKAT, MDA-MB-157, MDA-MB-231, MDA-MB-453, MDA-MB-468, PC-3, SK-BR-3, T47D, ZR-75-1) were treated with 3-BrPA (0-300 μM). After 3 days, cell viability was quantified via CellTiter-Glo assay and an IC50 from the resulting dose-response curve was interpolated using a nonlinear regression model. Transcriptome-wide normalized mRNA levels from gene expression profiling experiments performed on the Affymetrix Human Genome U133 Plus 2.0 chip were obtained from the CCLE for all 15 cell lines. The mRNA expression pattern across all 15 samples for each of the genes was then correlated with the IC50 values. Similar correlation analysis was performed using OCR/ECAR values for each cell line.

Assay [3] concerns MT-3 cells. The assay can be described thus: Cell survival assay, MT-3. It counts as cell-based, human. The note with it: MT-3, increased MCT1 level. How it is done:
as §2

For assay [4], the system named is MDA-MB-231 cells stably expressing MCT1. As to the kind of experiment: Subcutaneous MDA-MB-231 xenografts in nude mice. The assay is classed as in vivo. The note with it: tumors with forced MCT1 expression vs untreated or GFP-expressing, 8 mg/kg, 3 weeks. As to the method:
All animal studies and procedures were approved by the MIT Institutional Animal Care and Use Committee. 6-10 week old nude mice (Taconic) were used for generating all xenografts. In subcutaneous xenografts, mice were injected at two sites in the dorsal region, under isofluorane anesthesia with 100 μl/injection of tumor cell suspension in RPMI with 20% matrigel. 2.5 million MDA-MB-231 cells were injected. After 2 weeks, tumors were measured and mice were separated for PBS and 3-BrPA treatment (8 mg/kg). After 3 weeks, tumors were harvested, their dimensions were measured with a caliper and tumor volume estimated according to the formula: (0.5*W*L*L). Tumors were fixed in formalin for later processing.
To test if MCT1 expression can affect the sensitivity of established tumors to 3-BrPA, parental MDA-MB-231 cells, which express low levels of MCT1 (Supplemental FIG. 4), were injected subcutaneously into the left flanks of Nude mice, while MDA-MB-231 cells stably expressing MCT1 were injected into the contralateral flanks of the same animals. We allowed palpable subcutaneous tumors to form for 2 weeks before beginning 3-BrPA administration.

Assay [5] deals with AMPK and ACC phosphorylation. As to the kind of experiment: Immunoblot of AMPK and ACC phosphorylation, wild type KBM7 cells. It counts as cell-based, human. The note with it: 50 μM 3-BrPA.
The subject of assay [6] is MDA-MB-468 cells. As to the kind of experiment: Cell survival assay, MDA-MB-468. It counts as cell-based, human. How it is done: as §2, §3
Assay [7] relates to MDA-MB-231 cells. The assay can be described thus: Cell survival assay, MDA-MB-231. The assay is classed as cell-based, human. As to the method:
as §2, §3

The subject of assay [8] is MDA-MB-231 cells. As to the kind of experiment: 14C-3-BrPA uptake, parental and MCT1-overexpressing MDA-MB-231 cells. The assay is classed as cell-based, human. The note with it: MCT1-overexpressing vs parental MDA-MB-231.
Assay [9] deals with BT-549 cells. The assay can be described thus: Cell survival assay, BT-549. The assay is classed as cell-based, human. As to the method: as §2, §3
For assay [10], the system named is ER negative cells. As to the kind of experiment: 3-BrPA sensitivity of ER negative tumor cell lines. The assay is classed as cell-based. As to conditions: MCT1 expressed at high levels.
The test system of assay [11] is BT-20 cells. The assay can be described thus: Cell survival assay, BT-20. The assay is classed as cell-based, human. How it is done: as §2
The test system of assay [12] is HCC-70 cells. As to the kind of experiment: Cell survival assay, HCC-70. It counts as cell-based, human. The note with it: HCC-70, increased MCT1 level. How it is done:
as §2, §3

For assay [13], the system named is parental KBM7 cells. As to the kind of experiment: Luciferase-based ATP assay, parental KBM7 cells. The assay is classed as cell-based, human. The note with it: 30 min treatment. As to the method: as §1
Assay [14] deals with MCT1-null cells. The assay can be described thus: 14C-3-BrPA uptake assay, MCT1-null KBM7 cells. The assay is classed as cell-based, human. As to conditions: MCT1-null compared to parental KBM7 cells. How it is done: Wild type KBM7 or MCT1-null cells were seeded in HBSS and exposed for up to 20 minutes to 100 μM ^14C-labeled 3-BrPA (6.8 mCi/mmole) (Moravek) with or without competitor molecules like 3-BrPA, Pyruvate, L-Lactate and D-Lactate. Cells were washed with cold HBSS, lysed in a NaOH buffer, and uptake measured using a liquid scintillation counter.

The test system of assay [15] is MDA-MB-453 cells. The assay can be described thus: Cell survival assay, MDA-MB-453. The assay is classed as cell-based, human. The note with it: MDA-MB-453, low MCT1 level. How it is done: as §2, §3
Setting [16] is: wild type relative to MCT1-null KBM7, 50 μM, 1 hour, LC-MS.

Consider `O=C(O)C(=O)CBr` [3-BrPA, 3-bromopyruvic acid], for which the “intermediates of the pentose phosphate pathway” value in assay [1] (wild type KBM7, 50 μM, 1 hour, LC-MS) is “accumulated intermediates of the pentose phosphate pathway”. The “glycolytic intermediates after glyceraldehyde 3-phosphate” value in assay [1] (setting [16]) is on record as “depletion of those that come after”. The “glycolytic intermediates preceding glyceraldehyde 3-phosphate” value in assay [1] (setting [16]) is reported as “accumulation of the glycolytic intermediates that precede glyceraldehyde 3-phosphate”. Further, the “cause of anti-glycolytic effects from metabolite profiling” value in assay [1] (wild type vs MCT1-null KBM7 metabolite profiling) is reported as “strongly implicates GAPDH inhibition”. In addition, the “sensitivity to 3-BrPA” value is given as “resistant” in [2] (SK-BR-3, low MCT1 level); “sensitive” in [3]; “sensitive” in assay [6] (MDA-MB-468, increased MCT1 level); “resistant” in [7] (MDA-MB-231, low MCT1 level); “sensitive” in [9] (BT-549, increased MCT1 level); “highly sensitive” in assay [10]. Also, the “sensitivity to 3-BrPA” value is on record as “sensitive” in [11] (BT-20, increased MCT1 level); “sensitive” in assay [12]; “resistant” in [15]. The “sensitivity to 3-BrPA with stable expression of MCT1” value in [2] (SK-BR-3 stably expressing MCT1 cDNA) and in assay [7] (MDA-MB-231 stably expressing MCT1 cDNA) was “sufficient to sensitize” throughout. Besides, the “tumor size after 3-BrPA treatment” value in [4] is “significantly smaller”. The “AMPK and ACC phosphorylation, markers of energy stress” value in assay [5] is “robustly increasing”. In addition, the “sensitivity to 3-BrPA with suppression of GAPDH expression by RNAi” value in assay [6] (MDA-MB-468 expressing shRNA targeted to GAPDH vs GFP control) and in assay [9] (BT-549 expressing shRNA targeted to GAPDH vs GFP control) was “markedly increased the sensitivity” throughout. The “14C-3-BrPA uptake with MCT1 expression” value in assay [8] is “enhance”. In addition, the “sensitivity to 3-BrPA with partial suppression of MCT1 by RNAi” value in [9] (BT-549 expressing shRNAs targeting MCT1) and in assay [11] (BT-20 expressing shRNAs targeting MCT1) was “sufficient to confer resistance” each time. Further, the “total ATP levels” value in assay [13] is recorded as “substantial decrease”. Besides, in assay [14], the “uptake of 14C-labeled 3-BrPA” value was “did not take up”.
